Values after ≈ are worked out from the molar mass of the structure shown.
Tests used:
C. trachomatis = tested on: C. trachomatis; parameters: method as in PMID 9736551; conditions: cited from earlier work
[1] = tested on: N. gonorrhoeae strain NCCP11945 in coculture with human corneal epithelial cells; assay: Cell culture infection model, log reduction of N. gonorrhoeae on corneal epithelial cells; type: cell-based, Neisseria gonorrhoeae; conditions: for Killing of N. gonorrhoeae in coculture with corneal cells: 1 mM, added at time of infection or 90 min later, 3 h
Description: Because of its potency, resistance to precipitation in the presence of calcium, and nonirritant nature, monocaprin was chosen from the seven candidates to test in a cell culture model with a 2-fold dilution series from 1 mM to 0.125 mM. Bacteria were also challenged with this compound at two different time points, i.e., at the time of the inoculation and 90 min later. […] There was a slight difference in the level of efficacy when monocaprin was used at sub-MBC levels and added 90 min after bacterial inoculation in comparison to addition immediately after inoculation of the bacteria (Fig. 6). This was possibly due to monocaprin hindering attachment of the bacterial cells to the corneal cells when it was added at the time of infection.
Primary cornea epithelial cells (Life Technologies, Inc.) were grown in keratinocyte serum-free medium (Life Technologies, Inc.) at 37°C with 5% CO2 until 80% confluence was reached. Cells were treated with trypsin, washed, added to 24-well plates, and incubated for a further 24 h. The medium was replaced and approximately 10^7 CFU/ml P^+ and Opa^+ N. gonorrhoeae strain NCCP11945 added to reach a host-to-pathogen ratio (multiplicity of infection) of 1:10. Monocaprin (1 mM, 0.5 mM, 0.25 mM, or 0.125 mM) was added either at 0 min or at 90 min after seeding with N. gonorrhoeae. Controls included noninfected, noninfected treated (with 1 mM monocaprin), infection, and gentamicin controls. After 3 h, the cells were washed, treated with 1% saponin, and incubated for 10 min at 37°C. GC broth was added to each well, and log reductions were calculated as detailed above. Comparisons of the log reductions at different drug administration times at given concentrations were performed using an unpaired t test and GraphPad Prism (version 6.01).

bovine cornea = assay: Bovine corneal opacity and permeability (BCOP) test
Description: Bovine eyes were collected from a local slaughter house (ABP, Guildford, Surrey, United Kingdom) and were transported in cold saline solution for testing at the laboratory. Each eye was first visually examined for signs of damage before use. The test was conducted as detailed by Abdelkader and coworkers ([21]). The exposure time of the test substances was 30 s. The selected bactericidal compounds were tested at 1 mM in saline solution, with a corresponding vehicle control (1% ethanol–saline solution) also performed. […] The test area of the cornea was then washed with 10 ml saline solution. Corneal damage to the test area was assessed by fluorescein staining and examination under a cobalt blue filter. Pathological scoring based on opacity, epithelial integrity, and epithelial detachment was done in accordance with previous publications ([19]). Each of the seven lead candidates was tested in triplicate, and each test was performed on a separate day using a different batch of eyeballs. Corneal histology was done as outlined by Abdelkader and coworkers ([21]) by evaluating the damage to the epithelial layer and stroma of the cornea after hematoxylin and eosin staining.

[2] = tested on: nine gonococcal isolates (strain NCCP11945 and eight isolates from Public Health England); assay: Minimum bactericidal concentration by log reduction against nine gonococcal isolates; type: cell-based, Neisseria gonorrhoeae
Text: The seven candidates were further tested against nine gonococcal isolates, including strain NCCP11945 and eight isolates from Public Health England, to find their minimal bactericidal concentration (MBC). This was defined as the lowest concentration tested to give an average 4-log10 reduction in bacterial count after a 2-min exposure. […] Any candidate that killed all gonococcal cells in the cell suspension was given a log reduction score of six.
The well-characterized N. gonorrhoeae NCCP11945 strain ([36]) was used in the screening stage. Eight isolates obtained from Public Health England, representing circulating isolates from various European locations, were used in the log reduction assays. All isolates were cultured for 24 h prior to testing by plating on GC solid medium (Oxoid Limited, Hampshire, United Kingdom) with Kellogg supplements and incubation at 37°C and 5% CO2 ([37]).
(§1) Log reductions were done as described by Bergsson and coworkers ([18]). Briefly, cells were suspended in GC broth (18 g/liter GC base [Oxoid, Limited] with added defined supplements) to an optical density at 520 nm of 0.3, which is approximately equivalent to 10^7 to 10^8 cells per ml ([38]). […] The contents of the tubes were then mixed at room temperature for 2 min and immediately diluted in a 10-fold dilution series to 10^−4. The dilutions were plated by spreading 10 µl on a quarter of a plate; a 100-µl neat solution was also plated. Plates were then incubated at 37°C for 48 h, with all samples plated in duplicate. […] Additional testing at lower concentrations was also done on the eight clinical isolates of European origin.

N. gonorrhoeae = tested on: N. gonorrhoeae; parameters: method as in PMID 10543766; conditions: cited from earlier work
bovine RBCs = assay: Red blood cell (RBC) lysis assay; type: cell-based
Description: Whole bovine blood was obtained from a local slaughter house (ABP), adding 90 ml blood to 10 ml 110 mM trisodium citrate anticoagulant. RBCs were isolated the same day. The RBCs were washed by three repeats of centrifugation (1,500 × g for 10 min) and resuspension in phosphate-buffered saline (PBS) with 10 mM glucose (PBSG). Testing was done following the guidelines of the European Union Reference Laboratory for alternatives to animal testing (EURL-ECVAM) ([22]). The organic acids were solubilized in dimethyl sulfoxide (DMSO) and diluted to a maximum DMSO concentration of 10%. In a 2-ml centrifuge tube, 750 µl of the sample was added to 250 µl RBCs. Controls used in the assay were a complete lysis control (deionized water) and a fragility control (PBSG–10% DMSO). Samples were shaken at room temperature for 1 h and then centrifuged at 14,000 × g for 2 min. An aliquot of 750 µl of the supernatant was taken and its absorbance at 451 nm measured.

[3] = tested on: N. gonorrhoeae strain NCCP11945; assay: Log reduction assay in GC broth, 2-min exposure; type: cell-based, Neisseria gonorrhoeae
Description: To find potential candidates, 37 organic acids, esters, and salts were tested in a two-tiered screening process. These candidates were chosen based on the carbon chain lengths of the fatty acids, the presence or absence of saturation, and modifications to represent a diverse selection of organic acid candidates. The first screen aimed to determine the ability of each compound to inhibit the growth of N. gonorrhoeae strain NCCP11945 at 1 mM in GC solid media (Table 1). This strain was chosen due to its relatively recent isolation, its antibiotic resistance profile, and the availability of a complete genome sequence. Those candidates able to inhibit the growth of N. gonorrhoeae strain NCCP11945 were investigated in a second assay. The second assay tested the ability of each compound to cause at least a 4-log reduction in viable bacteria at 1 mM with a 2-min exposure time (Table 1).
as §1

CCCCCCCCCC(=O)OCC(O)CO (centres unmarked) [Monocaprin]
Activity against C. trachomatis (C. trachomatis): bactericidal
Efficacy (log reduction) in cell culture model ([1]; 0.125 mM, both time points): completely ineffective
Killing of N. gonorrhoeae in coculture with corneal cells [1]: killed all N. gonorrhoeae bacteria
Killing of N. gonorrhoeae in coculture with corneal cells ([1]; listed as monocaprin): complete killing
Bacterial log reduction, comparison of addition times ([1]; 0.25 and 0.5 mM, 0 min vs 90 min): more effective at 0 min
Mean cumulative BCOP score (bovine cornea; 1 mM in saline solution, 30 s exposure, triplicate): lower than 0.5
Fluorescein staining of cornea (bovine cornea; 1 mM, around rubber application ring): any sign of fluorescein staining
BCOP irritancy classification (bovine cornea; candidates 1 mM in saline, controls 0.5 M NaOH, 100% acetone, 30 s exposure): nonirritants
Killing of all gonococcal cells for all isolates ([2]; 1 mM, 2 min): killed all gonococcal cells for all isolates
MBC ([2]; lowest concentration giving mean log reduction above 4 from a 2-min exposure): 500 µM (≈ 123 µg/mL)
Antigonococcal properties (N. gonorrhoeae): strong antigonococcal properties
H50 concentration relative to MBC (bovine RBCs): greater than their MBCs
Log reduction at 1 mM: at least a 4-log reduction in viable bacteria (Yes/No) [3]: Yes
Log reduction at 1 mM (calculated log reduction in viable bacteria) ([3]; maximum score 6 = all cells killed): > 6 log10
